# According to patent publication US12414948B2, “Methods” (INTRA-CELLULAR THERAPIES, INC., priority 2022, dated 2025):
# System: hippocampal gene expression (NanoString gene sets and genes)
# Experiment: NanoString nCounter hippocampal gene expression after co-injection of LPS and lumateperone
# Format: in vivo, mouse
# From the text: NanoString. The mouse neuropathology panel includes 770 genes associated with themes of neurotransmission, neuron-glia interaction, neuroplasticity, cell structure integrity, neuroinflammation and metabolism. A total of 13 housekeeping genes are used for expression normalization (Aars: NM_146217.4, Asb10: NM_080444.4, Ccdc127: NM_024201.3, Cnot10: NM_153585.5, Csnk2a2: NM_009974.3, Fam104a: NM_138598.5, Gusb: NM_010368.1, Lars: NM_134137.2, Mto1: NM_026658.2, Supt7l: NM_028150.1, Tada2b: NM_001170454.1:3224, Tbp: NM_013684.3:70, and Xpnpep1: NM_133216.3:1826, see FIG. 1-1). Hippocampal RNA is extracted using the Qiagen microkit (Qiagen) and is evaluated by the Agilent 2100 Bioanalyzer (Agilent Technologies, Santa Clara, CA) to assess RNA concentration, quality, and integrity. Sample preparation, hybridization, and detection (100 ng per sample, n=5-6 per group) are carried out according to NanoString manufacturer's instructions (NanoString Technologies, Seattle, WA). The normalized data are transformed to log 2 score to express the fold change. NanoString results (raw and normalized counts) are derived from RCC files using the nSolver software (version 2.6; NanoString Technologies). A complementary gene software analysis tool, ROSALIND® Advanced Analysis Software (NanoString Technologies), is also used, which provides comprehensive free cloud-based data analysis for nCounter data by directly analyzing raw RCC files generated from NanoString. Data are imported into ROSALIND® Advanced Analysis Software for normalization, calculation of fold-changes, P values, identification of enriched pathways, and heatmaps.
# It is calculated similarly to a undirected global significance score, but it takes into account the sign of the t-statistic. Scores were calculated by nSolver software, using the control group as a reference.
# [1] = LPS 500 μg/kg-challenged mice, hippocampus 2 h, label LPS = LPS alone, label Luma = LPS + Luma 3 mg/kg, vs control group
# [2] = mice, hippocampus 2 h, Luma 3 mg/kg alone (no LPS), vs control group
compound,measurement,setting,value
"lipopolysaccharide [LPS, reference compound]",Directed global significance score: Adaptive immune response,[1],0.571
same,Directed global significance score: Angiogenesis,[1],−0.144
same,Directed global significance score: Apoptosis,[1],0.915
same,Directed global significance score: Astrocyte function,[1],1.391
same,Directed global significance score: Autophagy,[1],0.588
same,Directed global significance score: Carbohydrate metabolism,[1],0.507
same,Directed global significance score: Cell cycle,[1],−0.148
same,Directed global significance score: Cellular stress,[1],0.499
same,Directed global significance score: Cytokine signaling,[1],0.993
same,Directed global significance score: DNA damage,[1],0.578
same,Directed global significance score: Epigenetic regulation,[1],0.312
same,Directed global significance score: Growth factor signaling,[1],0.76
same,Directed global significance score: Inflammatory signaling,[1],1.086
same,Directed global significance score: Innate immune response,[1],0.939
same,Directed global significance score: Insulin signaling,[1],0.28
same,Directed global significance score: Lipid metabolism,[1],−0.192
same,Directed global significance score: Matrix remodeling,[1],−0.583
same,Directed global significance score: Microglia function,[1],0.377
same,Directed global significance score: Neurons and neurotransmission,[1],−0.422
same,Directed global significance score: Notch,[1],0.876
same,Directed global significance score: Oligodendrocyte function,[1],0.181
same,Directed global significance score: Wnt,[1],−0.476
"CN1CCN2c3c(cccc31)[C@@H]1CN(CCCC(=O)c3ccc(F)cc3)CC[C@@H]12 [Luma, lumateperone]",Directed global significance score: DNA damage,[1],0.042
same,Directed global significance score: Inflammatory signaling,[1],−0.93
same,Directed global significance score: Lipid metabolism,[1],0.89
same,Directed global significance score: Oligodendrocyte function,[1],0.48
same,"Genes that promote inflammation (e.g., Osmr, Tnfrsf1a, Tnfrsf11b, Prl, Il1r1), cytokine-specific gene expression","ROSALIND analysis, LPS+Luma versus LPS alone, filter P<0.04999, mice hippocampus",significantly downregulates
same,Directed global significance score: Adaptive immune response,[2],0.344
same,Directed global significance score: Angiogenesis,[2],0.616
same,Directed global significance score: Apoptosis,[2],−0.442
same,Directed global significance score: Astrocyte function,[2],−0.837
same,Directed global significance score: Autophagy,[2],−0.731
same,Directed global significance score: Carbohydrate metabolism,[2],−0.837
same,Directed global significance score: Cell cycle,[2],−0.75
same,Directed global significance score: Cellular stress,[2],−0.432
same,Directed global significance score: Cytokine signaling,[2],−0.543
same,Directed global significance score: DNA damage,[2],−0.614
same,Directed global significance score: Epigenetic regulation,[2],0.729
same,Directed global significance score: Growth factor signaling,[2],0.226
same,Directed global significance score: Inflammatory signaling,[2],−1.032
same,Directed global significance score: Innate immune response,[2],−0.611
same,Directed global significance score: Insulin signaling,[2],0.858
same,Directed global significance score: Lipid metabolism,[2],−0.818
same,Directed global significance score: Matrix remodeling,[2],−0.4
same,Directed global significance score: Microglia function,[2],0.466
same,Directed global significance score: Notch,[2],0.834
same,Directed global significance score: Oligodendrocyte function,[2],−1.176
same,Directed global significance score: Wnt,[2],0.9
